Some test systems named below: OVCAR-4; SK-MEL-28; SW-620; HCT-116; IGROV-1; KM12; MOLT-4; NCI-H460; EKVX; UACC-257; COLO 205; OVCAR-5; U-251; SK-MEL-5; SF-268; UACC-62; SNB-19; SF-295; HCT-15; LOX IMVI.
Holding throughout (assay): inhibition of tumour cell growth, NCI panel, 48 h

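Cells were grown in 96-well plates and exposed to each compound for 48 hours at five concentrations; endpoints were interpolated linearly between bracketing concentrations, or set to the highest concentration if not reached. Here, GI50 denotes the concentration required for 50% inhibition of growth.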 The source made the active and inactive calls. No stated cut-off is given here; in the data, active = GI50 up to about 1.1 µM and inactive = higher.

Consider `Cc1nc(Cl)c(C)c(Cl)n1`, for which the GI50 with OVCAR-4 is 52.7 µM (inactive); in the assay on SK-MEL-28, > 93.3 µM (inactive); in the assay with SW-620, > 55.8 µM (inactive); in the assay on HCT-116, > 100 µM (inactive); with IGROV-1, 15.9 µM (inactive); in the assay on KM12, > 59.6 µM (inactive). Besides, the GI50 in the assay with MOLT-4 was 6.17 µM (inactive); in the assay with NCI-H460, > 100 µM (inactive); in the assay on EKVX, > 27 µM (inactive); with UACC-257, > 100 µM (inactive); with COLO 205 it was > 100 µM (inactive); with OVCAR-5, > 100 µM (inactive). Further, the GI50 was > 100 µM (inactive) with U-251; > 59 µM (inactive) in the assay on SK-MEL-5; > 100 µM (inactive) in the assay on SF-268; > 80.4 µM (inactive) with UACC-62; > 100 µM (inactive) with SNB-19; > 100 µM (inactive) in the assay with SF-295. Further, the results for the GI50 with HCT-15 and in the assay on LOX IMVI were more than 63.4 µM and 33 µM (inactive), respectively.

As to `CC1C(=O)C(C)C(c2ccco2)N(N=O)C1c1ccco1` (centres undefined), the GI50 with OVCAR-4, with SK-MEL-28, in the assay on SW-620, in the assay with HCT-116, in the assay on IGROV-1 and in the assay on KM12 was > 100 µM (inactive) in each case. Also, the GI50 in the assay on MOLT-4, in the assay with NCI-H460, in the assay with EKVX, in the assay with UACC-257, in the assay with COLO 205 and with OVCAR-5 was > 100 µM (inactive) in each case. Also, the GI50 with U-251 is > 100 µM (inactive); with SK-MEL-5 it was > 100 µM (inactive); in the assay with SF-268 it was > 100 µM (inactive); in the assay on UACC-62 it was > 100 µM (inactive); with SNB-19, > 84.1 µM (inactive); with SF-295, > 100 µM (inactive). Also, the GI50 in the assay on HCT-15 was more than 100 µM; with LOX IMVI, > 100 µM (inactive).

In the case of `CC1=N/C(=C\c2ccc(N)cc2)C(=O)N1Nc1nnc(NN2C(=O)/C(=C/c3ccc(N)cc3)N=C2C)c2ccccc12`, the GI50 is 33 µM (inactive) in the assay with OVCAR-4; > 100 µM (inactive) in the assay with SK-MEL-28; 83.9 µM (inactive) with SW-620; > 100 µM (inactive) in the assay on HCT-116; 85.9 µM (inactive) with IGROV-1; 37.6 µM (inactive) in the assay on KM12. Further, the GI50 in the assay on MOLT-4 was 35.2 µM (inactive); in the assay with NCI-H460, > 100 µM (inactive); with EKVX it was > 100 µM (inactive); in the assay on UACC-257, > 100 µM (inactive); with COLO 205, 83.6 µM (inactive); in the assay on OVCAR-5, > 100 µM (inactive). Besides, the GI50 in the assay on U-251 was 45.4 µM (inactive); with SK-MEL-5, 45.2 µM (inactive); with SF-268, 55 µM (inactive); in the assay on UACC-62 it was 54.5 µM (inactive); in the assay on SNB-19, 33 µM (inactive); in the assay with SF-295, 26.6 µM (inactive). The GI50 in the assay on HCT-15 was 82.2 µM; with LOX IMVI it was 41.9 µM (inactive).

`O=C1CCC(=O)C1=NNc1ccccc1`: the GI50 in the assay on OVCAR-4, in the assay on SK-MEL-28, with SW-620, with HCT-116, in the assay with IGROV-1 and in the assay on KM12 was > 100 µM (inactive) in each case. The GI50 with MOLT-4, in the assay with NCI-H460, in the assay on EKVX, in the assay on UACC-257, in the assay with COLO 205 and with OVCAR-5 was > 100 µM (inactive) each time. The GI50 with U-251 was > 100 µM (inactive); with SK-MEL-5, 80.4 µM (inactive); with SF-268, > 100 µM (inactive); with UACC-62 it was 8.38 µM (inactive); in the assay with SNB-19, > 100 µM (inactive); in the assay on SF-295 it was > 100 µM (inactive). Moreover, the GI50 in the assay on HCT-15 was more than 100 µM; in the assay with LOX IMVI it was > 100 µM (inactive).

For the molecule `CCOc1ncn(-c2ccc(NC(=S)Nc3ncccn3)cc2)n1`, the GI50 was 21.8 µM (inactive) in the assay on OVCAR-4; 26.1 µM (inactive) in the assay with SK-MEL-28; 54.6 µM (inactive) in the assay on SW-620; 32.5 µM (inactive) in the assay on HCT-116; 26.5 µM (inactive) in the assay on IGROV-1; > 100 µM (inactive) in the assay on KM12. The GI50 is 20.1 µM (inactive) in the assay with MOLT-4; 41.4 µM (inactive) in the assay with NCI-H460; 64 µM (inactive) with EKVX; 28.9 µM (inactive) with UACC-257; 29.5 µM (inactive) with COLO 205; 54.8 µM (inactive) in the assay with OVCAR-5. Moreover, the GI50 in the assay with U-251 was > 100 µM (inactive); in the assay on SK-MEL-5, 18.2 µM (inactive); in the assay on SF-268, > 100 µM (inactive); in the assay on UACC-62, 28.8 µM (inactive); in the assay on SNB-19 it was 54 µM (inactive); in the assay on SF-295 it was 97.5 µM (inactive). In addition, the values for the GI50 in the assay on HCT-15 and with LOX IMVI were 39 µM and 17.6 µM (inactive), respectively.

As for `Fc1nc(Sc2ncnc3nc[nH]c23)nc(-c2c3ccccc3c3sc4ccccc4n23)n1`, the GI50 is > 100 µM (inactive) in the assay with OVCAR-4; 85.5 µM (inactive) in the assay on SK-MEL-28; > 100 µM (inactive) in the assay with SW-620; > 100 µM (inactive) with HCT-116; > 100 µM (inactive) with IGROV-1; > 100 µM (inactive) with KM12. In addition, the GI50 in the assay with MOLT-4 is 77.8 µM (inactive); with NCI-H460 it was > 100 µM (inactive); with EKVX it was > 100 µM (inactive); in the assay on UACC-257, > 100 µM (inactive); with COLO 205 it was > 100 µM (inactive); with OVCAR-5, > 100 µM (inactive). Besides, the GI50 with U-251 is > 100 µM (inactive); in the assay on SK-MEL-5, > 100 µM (inactive); with SF-268 it was 36.3 µM (inactive); in the assay on UACC-62, > 100 µM (inactive); in the assay with SNB-19 it was > 100 µM (inactive); in the assay with SF-295, > 100 µM (inactive). For the same molecule, the GI50 in the assay with HCT-15 was more than 100 µM; in the assay on LOX IMVI, 80 µM (inactive).

On to `CCN1c2ccccc2-n2c(C)nnc2-c2c(-c3ccccc3)n[nH]c21`, for which the GI50 in the assay on OVCAR-4 was 22 µM (inactive); in the assay with SK-MEL-28 it was 30.5 µM (inactive); in the assay on SW-620, 36.2 µM (inactive); in the assay with HCT-116, 26.5 µM (inactive); in the assay on IGROV-1 it was 21.4 µM (inactive); with KM12, 26.5 µM (inactive). For the same molecule, the GI50 is 18.2 µM (inactive) with MOLT-4; 27.8 µM (inactive) with NCI-H460; 49.7 µM (inactive) in the assay with EKVX; > 100 µM (inactive) in the assay with UACC-257; 32.4 µM (inactive) in the assay on COLO 205; > 100 µM (inactive) in the assay with OVCAR-5. Besides, the GI50 in the assay on U-251 was 18.5 µM (inactive); in the assay with SK-MEL-5, 14.5 µM (inactive); with SF-268, 35.8 µM (inactive); in the assay with UACC-62, 22.4 µM (inactive); with SNB-19 it was 42.9 µM (inactive); in the assay with SF-295, 31 µM (inactive). Further, the values for the GI50 in the assay with HCT-15 and in the assay with LOX IMVI were 11.1 µM and 23.1 µM (inactive), respectively.

Consider `O=C(CCN1CCOCC1)/C(=C/c1ccccc1)c1ccccc1`, for which the GI50 in the assay on OVCAR-4 was 10.3 µM (inactive); with SK-MEL-28, 5.37 µM (inactive); in the assay on SW-620, 2.47 µM (inactive); in the assay on HCT-116 it was 3.47 µM (inactive); in the assay with IGROV-1 it was 9.93 µM (inactive); with KM12 it was 6.25 µM (inactive). Moreover, the GI50 is 2.03 µM (inactive) with MOLT-4; 8.95 µM (inactive) with NCI-H460; 8.18 µM (inactive) in the assay on EKVX; 2.74 µM (inactive) in the assay with UACC-257; 3.89 µM (inactive) in the assay on COLO 205; 16.6 µM (inactive) in the assay with OVCAR-5. Besides, the GI50 is 3.99 µM (inactive) in the assay on U-251; 8.45 µM (inactive) in the assay with SK-MEL-5; 7.11 µM (inactive) in the assay with SF-268; 2.49 µM (inactive) in the assay with UACC-62; 11 µM (inactive) in the assay with SNB-19; 12.3 µM (inactive) with SF-295. Moreover, the GI50 in the assay with HCT-15 was 2.19 µM; with LOX IMVI, 2.61 µM (inactive).

In the case of `CC(=O)c1c(-c2ccco2)c(C#N)c(=S)n(C2OC(CO)C(O)C(O)C2O)c1-c1ccccc1` (centres undefined), the GI50 with OVCAR-4 is 73.3 µM (inactive); with SK-MEL-28, 38.9 µM (inactive); in the assay with SW-620, 76 µM (inactive); in the assay on HCT-116, 66.2 µM (inactive); with IGROV-1, > 100 µM (inactive); with KM12 it was 64.3 µM (inactive). In addition, the GI50 in the assay with MOLT-4 is 31.6 µM (inactive); in the assay with NCI-H460, > 100 µM (inactive); with EKVX, 43.1 µM (inactive); in the assay with UACC-257, > 100 µM (inactive); in the assay on COLO 205, > 100 µM (inactive); in the assay on OVCAR-5, > 100 µM (inactive). Moreover, the GI50 with U-251 was 28.4 µM (inactive); with SK-MEL-5, 35.7 µM (inactive); in the assay on SF-268, 61.2 µM (inactive); with UACC-62 it was 32 µM (inactive); with SNB-19, 22.4 µM (inactive); in the assay with SF-295, 52.7 µM (inactive). For the same molecule, the GI50 was 73.3 µM with HCT-15 and 36.2 µM (inactive) in the assay with LOX IMVI.

Consider `CC(C)c1ccc(/C=C2\CSCC3=C2N=C2SCC(=O)N2C3c2ccc(C(C)C)cc2)cc1` (centres undefined), for which the GI50 with OVCAR-4, in the assay with SK-MEL-28, in the assay with SW-620, in the assay with HCT-116, with IGROV-1 and with KM12 was > 100 µM (inactive) each time. In addition, the GI50 in the assay with MOLT-4 was 75.5 µM (inactive); in the assay on NCI-H460 it was > 100 µM (inactive); with EKVX it was > 100 µM (inactive); with UACC-257 it was > 100 µM (inactive); in the assay on COLO 205, > 100 µM (inactive); with OVCAR-5, > 100 µM (inactive). Moreover, the GI50 in the assay on U-251 is 64.3 µM (inactive); in the assay on SK-MEL-5 it was > 100 µM (inactive); in the assay on SF-268, > 100 µM (inactive); in the assay on UACC-62, > 100 µM (inactive); in the assay on SF-295 it was > 100 µM (inactive); with HCT-15 it was more than 100 µM. The GI50 with LOX IMVI is > 100 µM (inactive).

Values taken from ChEMBL document CHEMBL1201862, “PubChem BioAssay data set” (2004).
